{
  "source": "patent US12290512B2",
  "about": "“Gel composition with an anaesthetic effect of short and long term duration” (priority 2018, dated 2025)",
  "test": "anaesthetic effect (onset and duration) of gel composition administered through the urethra",
  "format": "in vivo",
  "conditions": "gel compositions comprising the anaesthetic",
  "data": [
    {"smiles": "CCCCN1CCCCC1C(=O)Nc1c(C)cccc1C", "note": "(centres unmarked) [bupivacaine]", "values": [
      {"measurement": "duration of action", "value": "up to 7 hours"},
      {"measurement": "onset of action", "value": "7 to 10", "unit": "min"}
    ]},
    {"smiles": "CCN(CC)CC(=O)Nc1c(C)cccc1C", "note": "[lidocaine]", "values": [
      {"measurement": "duration of action", "value": "15 to 20", "unit": "min"}
    ]},
    {"smiles": "CCCN1CCCC[C@H]1C(=O)Nc1c(C)cccc1C", "note": "[ropivacaine]", "values": [
      {"measurement": "duration of action", "value": "120 to 600", "unit": "min"},
      {"measurement": "onset of action", "value": "10 to 20", "unit": "min"}
    ]}
  ]
}
